Measured values reported in US20200022995A1, “Novel Immunodulating Small Molecules” (AyuVis Research, Inc., priority 2018, published 2020).

What was measured:
[1] = system: P. aeruginosa (ATCC-10145 GFP) infected skin wounds; test: Murine skin wound infection with P. aeruginosa; format: in vivo, C57BL/6 mice
Experimental: Five groups of C57BL/6 mice (8-10 weeks old, n=4) were wounded on the dorsal surface. 25 ul containing 10^6 CFU/mL P. aeruginosa in a PBS suspension were pipetted onto the wound and allowed to absorb for at least 3 min. […] Subsequently and for the next 13 days, infected wounds were treated each alternate day with colistin, or with test compounds.

TLR4 = TLR4 (Homo sapiens, UniProt O00206); test: TLR4 inhibitory and activating activity in THP-1 cells; format: cell-based; design: endogenous in cells; host or cells: THP-1 monocytes, PMA-stimulated
neonatal pups with BPD = test: Hyperoxia mouse model of BPD (newborn pups); format: in vivo; settings: for lung injury in neonatal pups with BPD: mouse model of BPD; for TLR4 inhibition in an in vivo model system: neonatal pups with BPD; for lung architecture: saline IV and nanosuspension IN
Excerpt: Neonatal mice and humans undergo similar stages of lung development but differ with respect to the duration of each stage and its temporal relationship to gestational age. The lungs of the mouse born at term are in the saccular stage and are surfactant sufficient; this can be considered somewhat akin to a human preterm neonate in the same stage of lung development that has been exposed to a full complement of antenatal steroids (which is known to enhance surfactant production). In terms of mimicking the human condition, the most successful hyperoxia models are those that limit exposure to hyperoxia to the saccular stage of pulmonary development. The mouse BPD model involves exposing newborn mice (postnatal day 1 or PN1) to 100% oxygen till PN4 followed by recovery in room air (RA) for another 10 days.
After the recovery period, their lungs were harvested and processed for quantitative PCR, western blotting, histopathology and ELISA.
Each of the compounds 3, 8 or 32 encapsulated in PLGA nanoparticles referred as 3NP, 8NP and 32NP was instilled intranasally (IN) as nanosuspension to newborn pups on PN2 and PN4 at different doses (FIG. 28). After the recovery period, their lungs were harvested and processed for quantitative PCR, western blotting and histopathology and ELISA.
BPD is characterized by large simplified alveoli, inflammation, increased cell death, decreased cell proliferation, dysmorphic capillary configuration, and variable interstitial cellularity and/or fibroproliferation. […] This is determined by measuring the alveolar chord length, septal thickness and radial alveolar count (RAC). In BPD, the alveolar area increases which is characterized by increase in the diameter of the alveolar sacs, the septa become thickened (thus interfering in gaseous exchange) and the RAC, a parameter used to assess the complexity of terminal respiratory unit by pulmonologists, decreases as a result of arrested lung development.

hPBMC = test: Cytotoxicity in hPBMC (MTT); format: cell-based, human; settings: 0.1, 1.0, 10, 100 and 1000 μM, 24 h
Experimental: The cells were treated with compounds and incubated for 24 h. Cell viability was assessed using MTT cell proliferation kit (Promega). All the compounds were not toxic to hPMBC (FIG. 12).

HUVECs [2] = test: Cytotoxicity in HUVECs (MTT); format: cell-based, human; settings: 100 μM, 24 h
Experimental: Selected TLR2/4 antagonist compounds 2, 6, 7, 8, 14, 17 and 32 were evaluated for cytotoxicity in HUVECs at 100 μM concentration. The cells were treated with compounds and incubated for 24 h. Cell viability was assessed using MTT cell proliferation kit (Promega). All the compounds were not toxic to HUVECs (FIG. 15).

HUVECs [3] = test: Anti-angiogenic activity, VEGF induced tube formation in HUVECs; format: cell-based, human; settings: VEGF 100 ng/mL
Experimental: Selected TLR2/4 antagonist compounds 2, 6, 7, 8, 14, 17 and 32 were evaluated for anti-angiogenic activity using the Tube Formation kit (Cat #3470-096-K). VEGF (100 ng/mL) was used as positive control. These compounds have potential applications in diseases associated with pathological angiogenesis such as solid tumor, […], diabetic retinopathy as well as AMD.

[4] = system: normal lung epithelial cells (AT-1); settings: 1 mM and 2 mM, 48 h
Experimental: Compounds 8, 17, 29 and 35 were tested for cytotoxicity in normal lung epithelial cells (AT-1) at concentrations of 1 mM and 2 mM. The cells were treated with compounds and incubated for 48 h. Cell viability was assessed using tryptan blue live/dead assay.

THP-1 cells = test: Monocyte differentiation, phagocytosis and intracellular killing of Pseudomonas aeruginosa in THP-1 cells; format: cell-based, human
Excerpt: Two of these compounds 8 and 32 stimulated monocyte differentiation into macrophages, increased phagocytosis of Pseudomonas aeruginosa (FIG. 18) and increased intracellular killing of bacteria (FIG. 19). These compounds have potential to be used as vaccine adjuvants and in combination with existing antibiotic for prophylactic treatment such as in cystic fibrosis patients.

Sequence of TLR4 (O00206 24-839): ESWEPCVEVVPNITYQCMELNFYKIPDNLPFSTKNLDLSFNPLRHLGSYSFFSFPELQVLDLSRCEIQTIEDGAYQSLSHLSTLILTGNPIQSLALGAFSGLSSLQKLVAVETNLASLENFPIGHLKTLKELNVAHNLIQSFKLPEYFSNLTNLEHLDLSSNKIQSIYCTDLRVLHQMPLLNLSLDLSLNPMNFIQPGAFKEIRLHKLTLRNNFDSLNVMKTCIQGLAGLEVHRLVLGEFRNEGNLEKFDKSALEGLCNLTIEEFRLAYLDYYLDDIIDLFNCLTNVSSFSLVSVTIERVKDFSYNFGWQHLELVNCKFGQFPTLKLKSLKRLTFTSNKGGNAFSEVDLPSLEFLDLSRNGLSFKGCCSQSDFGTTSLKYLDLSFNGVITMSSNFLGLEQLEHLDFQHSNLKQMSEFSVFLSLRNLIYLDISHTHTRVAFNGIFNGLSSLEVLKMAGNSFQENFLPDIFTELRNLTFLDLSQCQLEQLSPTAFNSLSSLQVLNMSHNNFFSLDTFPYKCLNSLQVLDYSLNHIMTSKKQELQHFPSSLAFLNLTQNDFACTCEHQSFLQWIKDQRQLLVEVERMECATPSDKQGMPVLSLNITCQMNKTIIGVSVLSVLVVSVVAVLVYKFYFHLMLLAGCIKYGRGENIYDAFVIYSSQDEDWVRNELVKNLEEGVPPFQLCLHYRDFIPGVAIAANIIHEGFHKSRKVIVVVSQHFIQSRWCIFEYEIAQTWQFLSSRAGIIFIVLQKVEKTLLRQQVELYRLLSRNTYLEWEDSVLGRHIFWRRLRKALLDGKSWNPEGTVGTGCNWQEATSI

Row | TLR2/4 antagonist or TLR4 agonist activity as shown in Table-1 (TLR4) | Molecule | cytotoxicity in hPBMC (hPBMC) | cytotoxicity in HUVECs (HUVECs [2]) | VEGF induced tube formation (HUVECs [3]) | other results
1 |  | colistin [reference compound] |  |  |  | wound closure at day 13 ([1]; 25 μl Colistin 4 μg/ml or compound 100 μg/ml, each alternate day): complete closure; re-epithelialization and granulation tissue versus controls ([1]; H&E histology, day 13 post-injury): significantly enhanced
2 | TLR4 agonists | CC(=O)NC1[C@H](Oc2ccc3c(C)cc(=O)oc3c2)O[C@H](CO)[C@@H](O)[C@@H]1O (single isomer, unassigned) [Compound 29] |  |  |  | 
3 |  | CC(=O)N[C@@H]1[C@@H](O)[C@H](O)[C@@H](CO)O[C@H]1NC(=O)c1ccc(O[C@@H]2O[C@H](CO)[C@@H](O)[C@H](O)[C@H]2NC(C)=O)cc1 [Compound 3] |  |  |  | lung injury in neonatal pups with BPD (neonatal pups with BPD): prevent lung injury; TLR4 inhibition in an in vivo model system (neonatal pups with BPD): inhibit TLR4; lung architecture (neonatal pups with BPD): restored
4 |  | CC(=O)N[C@H]1[C@H](Oc2ccc(NC(=O)c3ccc(O[C@@H]4O[C@H](CO)[C@@H](O)[C@H](O)[C@H]4NC(C)=O)cc3)cc2)O[C@H](CO)[C@@H](O)[C@@H]1O [Compound 7] | not toxic | not toxic | significantly deceased | 
5 |  | CC(=O)N[C@H]1[C@H](Oc2ccc(C(=O)Nc3ccc(O[C@@H]4O[C@H](COC(C)=O)[C@@H](OC(C)=O)[C@H](OC(C)=O)[C@H]4NC(C)=O)cc3)cc2)O[C@H](CO)[C@@H](O)[C@@H]1O [Compound 6] |  | not toxic | significantly deceased | 
6 |  | CC(=O)N[C@@H]1[C@@H](OC(C)=O)[C@H](OC(C)=O)[C@@H](COC(C)=O)O[C@H]1NC(=O)c1ccc(O[C@@H]2O[C@H](CO)[C@@H](O)[C@H](O)[C@H]2NC(C)=O)cc1 [Compound 2] | not toxic | not toxic | significantly deceased | 
7 | TLR4 agonists | CC(=O)N[C@@H]1C(Oc2ccc(Cl)cc2)OC(CO)C(O)C1O (stereo partly shown) [Compound 39] |  |  |  | 
8 |  | CC(=O)O[C@H]1C(=O)[C@@]2(C)[C@H]([C@H](OC(=O)c3ccccc3)[C@]3(O)C[C@H](OC(=O)[C@H](O)[C@@H](NC(=O)c4ccccc4)c4ccccc4)C(C)=C1C3(C)C)[C@]1(OC(C)=O)CO[C@@H]1C[C@@H]2O [Taxol] |  |  |  | cytotoxicity in normal lung epithelial cells (AT-1) [4]: toxic
9 | TLR4 agonists | CC(=O)NC1[C@H](Oc2cccc3sc(NC(=O)C(C)(C)C)nc23)O[C@H](CO)[C@@H](O)[C@@H]1O (single isomer, unassigned) [Compound 23] |  |  |  | 
10 | TLR4 agonists | COc1ccc(OC2OC(CO)C(O)C(O)[C@@H]2NC(C)=O)cc1 (stereo partly shown) [Compound 38] |  |  |  | 
11 |  | CC(=O)NC1[C@H](Oc2ccc(B3OC(C)(C)C(C)(C)O3)cc2)O[C@H](CO)[C@@H](O)[C@@H]1O (single isomer, unassigned) [Compound 32, p-Pinacoloneboronatephenyl 2-acetamido-2-deoxy-β-D-glucopyranoside] | not toxic | not toxic | significantly deceased | monocyte differentiation into macrophages (THP-1 cells): stimulated; intracellular killing of bacteria (THP-1 cells; Pseudomonas aeruginosa, THP-1 cells): increased; phagocytosis of Pseudomonas aeruginosa (THP-1 cells; THP-1 cells): increased; lung injury in neonatal pups with BPD (neonatal pups with BPD): prevent lung injury; TLR4 inhibition in an in vivo model system (neonatal pups with BPD): inhibit TLR4; lung architecture (neonatal pups with BPD): restored
12 | TLR4 agonists | CC(=O)N[C@@H]1C(Oc2ccccc2O)OC(CO)C(O)C1O (stereo partly shown) [Compound 40] |  |  |  | 
13 |  | CC(=O)N[C@H]1[C@H](Oc2ccc(C#N)cc2)O[C@H](CO)[C@@H](O)[C@@H]1O [Compound 14, p-Cyanophenyl 2-acetamido-2-deoxy-β-D-glucopyranoside] | not toxic | not toxic | significantly deceased | 
14 | TLR4 agonists | CC(=O)NC1C(Oc2ccc3nonc3c2)OC(CO)C(O)C1O (stereo in doubt) [Compound 17, N-((2S,3R,4S,5S,6R)-2-(benzo[c][1,2,5]oxadiazol-5-yloxy)-4,5-dihydroxy-6-(hydroxymethyl)tetrahydro-2H-pyran-3-yl)acetamide] | not toxic | not toxic | significantly deceased | 
15 | TLR4 agonists | CC(=O)NC1[C@H](Oc2ccc(N3CCN(C(C)=O)CC3)cc2)O[C@H](CO)[C@@H](O)[C@@H]1O (single isomer, unassigned) [Compound 28] |  |  |  | 

Row | Molecule | TLR2/4 antagonist or TLR4 agonist activity as shown in Table-1 (TLR4) | cytotoxicity in hPBMC (hPBMC) | cytotoxicity in HUVECs (HUVECs [2]) | VEGF induced tube formation (HUVECs [3]) | other results
16 | CC(=O)N[C@H]1[C@H](Oc2ccc3c(C)cc(=O)oc3c2)O[C@H](COS(=O)(=O)O)[C@@H](O)[C@@H]1O [Compound 30] | TLR4 agonists |  |  |  | 
